From patent US11607458B2 (Georgia State University Research Foundation, Inc, priority 2017, dated 2023)
“And” between values parts separate entries of the source, which are not always exact repeats. Equal entries are not always repeated.

What was measured:
[1] = HPLC studies of reaction kinetics of tetrazine prodrugs with cyclooctyne alkynes (Kobs, second-order rate constant k2); type: physicochemical; conditions: for Kobs: prodrug 25 μM; for k2 at 37° C. (second order rate constant) / k2 at r.t (second order rate constant): PBS containing 10% DMSO, n = 3
Method in brief: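 Tetrazine prodrug (25 μM) reacted with alkyne at 0.75, 1 and 1.25 mM in PBS with 10% DMSO, at room temperature or 37 °C. Prodrug HPLC peak area was sampled every 30 min and fitted to single exponential decay for kobs; k2 was taken as the slope of kobs versus alkyne concentration.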

[2] = Determination of the lactonization rate constants (k1) by HPLC; type: physicochemical; conditions: for Lactonization rate constant k1: r.t., PBS (15% DMSO)
Procedure: General procedure for the determination of the lactonization rate constants. To a 9 mL PBS in a 20-mL vial was added a solution of the respective tetrazine prodrug (500 μL, 500 μM). Then 1 mL of the respective alkyne (50 mM in DMSO) was added to afford a final concentration of 5 mM in PBS (15% DMSO). The reaction was stirred at r.t. Every 30 min about 500 μL the reaction mixture was taken out and 20 μL of them was injected into the HPLC by an autosampler; the rest of them was poured back to the reaction mixture. The reaction rate constant, k1, was determined by fitting the area in HPLC chromatogram of the intermediate versus time using eq. 3: Y=A exp(−k1t) eq. 3 where Y is the intermediate areas, and t is the time.

C#CCOc1ccc(-c2nnc(C(=O)NCCCOCCOCCOCCCNS(=O)(=O)c3cccc4c(N(C)C)cccc34)nn2)cc1 [1d]
Kobs ([1]; 37° C., alkyne 2b 0.75 mM, Expt. 1): 0.411 h⁻¹
Kobs ([1]; 37° C., alkyne 2b 0.75 mM, Expt. 2): 0.388 h⁻¹
Kobs ([1]; 37° C., alkyne 2b 0.75 mM, Expt. 3): 0.353 h⁻¹
Kobs ([1]; 37° C., alkyne 2b 1.00 mM, Expt. 1): 0.548 h⁻¹
Kobs ([1]; 37° C., alkyne 2b 1.00 mM, Expt. 2): 0.511 h⁻¹
Kobs ([1]; 37° C., alkyne 2b 1.00 mM, Expt. 3): 0.453 h⁻¹
Kobs ([1]; 37° C., alkyne 2b 1.25 mM, Expt. 1): 0.695 h⁻¹
Kobs ([1]; 37° C., alkyne 2b 1.25 mM, Expt. 2): 0.636 h⁻¹
Kobs ([1]; 37° C., alkyne 2b 1.25 mM, Expt. 3): 0.561 h⁻¹
Kobs ([1]; 37° C., alkyne 2c 0.75 mM, Expt. 1): 0.0506 h⁻¹
Kobs ([1]; 37° C., alkyne 2c 0.75 mM, Expt. 2): 0.0584 h⁻¹
Kobs ([1]; 37° C., alkyne 2c 0.75 mM, Expt. 3): 0.0599 h⁻¹
Kobs ([1]; 37° C., alkyne 2c 1.00 mM, Expt. 1): 0.0670 h⁻¹
Kobs ([1]; 37° C., alkyne 2c 1.00 mM, Expt. 2): 0.0781 h⁻¹
Kobs ([1]; 37° C., alkyne 2c 1.00 mM, Expt. 3): 0.0801 h⁻¹
Kobs ([1]; 37° C., alkyne 2c 1.25 mM, Expt. 1): 0.083 h⁻¹
Kobs ([1]; 37° C., alkyne 2c 1.25 mM, Expt. 2): 0.0978 h⁻¹
Kobs ([1]; 37° C., alkyne 2c 1.25 mM, Expt. 3): 0.101 h⁻¹
Kobs ([1]; 37° C., alkyne 2d 0.25 mM, Expt. 1): 1.82 h⁻¹
Kobs ([1]; 37° C., alkyne 2d 0.25 mM, Expt. 2): 1.64 h⁻¹
Kobs ([1]; 37° C., alkyne 2d 0.25 mM, Expt. 3): 1.90 h⁻¹
Kobs ([1]; 37° C., alkyne 2d 0.3 mM, Expt. 1): 2.15 h⁻¹
Kobs ([1]; 37° C., alkyne 2d 0.3 mM, Expt. 2): 1.94 h⁻¹
Kobs ([1]; 37° C., alkyne 2d 0.3 mM, Expt. 3): 2.26 h⁻¹
Kobs ([1]; 37° C., alkyne 2d 0.35 mM, Expt. 1): 2.53 h⁻¹
Kobs ([1]; 37° C., alkyne 2d 0.35 mM, Expt. 2): 2.25 h⁻¹
Kobs ([1]; 37° C., alkyne 2d 0.35 mM, Expt. 3): 2.65 h⁻¹
k2 at 37° C. (second order rate constant) ([1]; alkyne 2b, 37° C.): 0.14 M⁻¹ s⁻¹ and 0.14 ± 0.04 M⁻¹ s⁻¹
k2 at r.t (second order rate constant) ([1]; alkyne 2b, r.t): 0.042 M⁻¹ s⁻¹ and 0.042 ± 0.012 M⁻¹ s⁻¹
k2 at 37° C. (second order rate constant) ([1]; alkyne 2c, 37° C.): 0.021 M⁻¹ s⁻¹ and 0.021 ± 0.005 M⁻¹ s⁻¹
k2 at r.t (second order rate constant) ([1]; alkyne 2c, r.t): 0.0075 M⁻¹ s⁻¹ and 0.0075 ± 0.0009 M⁻¹ s⁻¹
k2 at 37° C. (second order rate constant) ([1]; alkyne 2d, 37° C.): 1.9 M⁻¹ s⁻¹ and 1.9 ± 0.4 M⁻¹ s⁻¹
k2 at r.t (second order rate constant) ([1]; alkyne 2d, r.t): 0.25 M⁻¹ s⁻¹ and 0.25 ± 0.06 M⁻¹ s⁻¹
Kobs ([1]; r.t, alkyne 2b 0.75 mM, Expt. 1): 0.125 h⁻¹
Kobs ([1]; r.t, alkyne 2b 0.75 mM, Expt. 2): 0.115 h⁻¹
Kobs ([1]; r.t, alkyne 2b 0.75 mM, Expt. 3): 0.13 h⁻¹
Kobs ([1]; r.t, alkyne 2b 1.00 mM, Expt. 1): 0.155 h⁻¹
Kobs ([1]; r.t, alkyne 2b 1.00 mM, Expt. 2): 0.148 h⁻¹
Kobs ([1]; r.t, alkyne 2b 1.00 mM, Expt. 3): 0.175 h⁻¹
Kobs ([1]; r.t, alkyne 2b 1.25 mM, Expt. 1): 0.199 h⁻¹
Kobs ([1]; r.t, alkyne 2b 1.25 mM, Expt. 2): 0.180 h⁻¹
Kobs ([1]; r.t, alkyne 2b 1.25 mM, Expt. 3): 0.22 h⁻¹
Kobs ([1]; r.t, alkyne 2c 0.75 mM, Expt. 1): 0.0203 h⁻¹
Kobs ([1]; r.t, alkyne 2c 0.75 mM, Expt. 2): 0.0201 h⁻¹
Kobs ([1]; r.t, alkyne 2c 0.75 mM, Expt. 3): 0.0217 h⁻¹
Kobs ([1]; r.t, alkyne 2c 1.00 mM, Expt. 1): 0.0273 h⁻¹
Kobs ([1]; r.t, alkyne 2c 1.00 mM, Expt. 2): 0.0269 h⁻¹
Kobs ([1]; r.t, alkyne 2c 1.00 mM, Expt. 3): 0.0289 h⁻¹
Kobs ([1]; r.t, alkyne 2c 1.25 mM, Expt. 1): 0.0339 h⁻¹
Kobs ([1]; r.t, alkyne 2c 1.25 mM, Expt. 2): 0.0324 h⁻¹
Kobs ([1]; r.t, alkyne 2c 1.25 mM, Expt. 3): 0.0359 h⁻¹
Kobs ([1]; r.t, alkyne 2d 0.75 mM, Expt. 1): 0.752 h⁻¹
Kobs ([1]; r.t, alkyne 2d 0.75 mM, Expt. 2): 0.704 h⁻¹
Kobs ([1]; r.t, alkyne 2d 0.75 mM, Expt. 3): 0.756 h⁻¹
Kobs ([1]; r.t, alkyne 2d 1.00 mM, Expt. 1): 0.980 h⁻¹
Kobs ([1]; r.t, alkyne 2d 1.00 mM, Expt. 2): 0.802 h⁻¹
Kobs ([1]; r.t, alkyne 2d 1.00 mM, Expt. 3): 1.01 h⁻¹
Kobs ([1]; r.t, alkyne 2d 1.25 mM, Expt. 1): 1.20 h⁻¹
Kobs ([1]; r.t, alkyne 2d 1.25 mM, Expt. 2): 1.10 h⁻¹
Kobs ([1]; r.t, alkyne 2d 1.25 mM, Expt. 3): 1.26 h⁻¹
Lactonization rate constant k1 ([2]; alkyne 2b 5 mM, Exp 2): 0.184 h⁻¹
Lactonization rate constant k1 ([2]; alkyne 2b 5 mM, Expt 1): 0.162 h⁻¹
Lactonization rate constant k1 ([2]; alkyne 2b 5 mM, Expt. 3): 0.142 h⁻¹
k1 at r.t (lactonization) ([2]; alkyne 2b, n = 3): 0.16 ± 0.04 h⁻¹
k1 at r.t (lactonization) ([2]; alkyne 2c, no intermediates observed by HPLC): too fast to detect
Lactonization rate constant k1 ([2]; alkyne 2d 5 mM, Exp 2): 0.0291 h⁻¹
Lactonization rate constant k1 ([2]; alkyne 2d 5 mM, Expt 1): 0.0253 h⁻¹
Lactonization rate constant k1 ([2]; alkyne 2d 5 mM, Expt. 3): 0.0332 h⁻¹
k1 at r.t (lactonization) ([2]; alkyne 2d, n = 3): 0.029 ± 0.006 h⁻¹
